From patent publication US5750578A, “Use of betulin and analogs thereof to treat herpesvirus infection” (priority 1997, dated 1998)
Entries after “also recorded” stand apart in the source; their conditions may differ.

Columns and labels:
HSV-1 [1] = test: Cell protection test, HSV-1 in HEp2 cells; format: cell-based, herpes simplex virus type 1 (KOS, patent strain); settings: duplicate wells, 72 hours
Protocol: (§1) Two different HSV-1 and HSV-2 strains were used: HSV-1 (KOS), HSV-2 (MS). Also, HSV-1 (patent strain) and HSV-2 (patent strain) were purchased from ATCC and propagated in HEp2 cell monolayers. Virus stocks were prepared by adsorbing 1 ml of virus suspension containing 1 ×10^5 virus particles for one hour in HEp2 cells at 37° C. in 5% carbon dioxide tension. This stock was incubated under similar conditions for 48 hours after adding 15 ml of MEM containing the usual supplements.
(§2) Infected cells were harvested and disrupted through three cycles of freezing and thawing. The contents in the flasks were pooled, and the supernatant virus particles were collected by centrifugation at 3000 rpm for 5 minutes. The virus suspension dispensed in 2.5 ml aliquot each and […] using both microtitration and plaque counting methods. HSV-1 and HSV-2 containing 5×10^4 PFU/ml and 5.25×10^4 PFU/ml respectively were stored at -80° C. until needed.
(§3) A plus 3 (+++) was given to the wells in which betulin solutions protected the cells without any cytopathic effect as compared to cell and betulin control.

Vero cells = test: Cytotoxicity test and drug controls, Vero cells; parameters: Betulin control (monolayer rating) / Acyclovir control (monolayer rating): key to the marks not given beside the values
Protocol: Human epithelial type 2 (HEp2), African green monkey kidney (Vero) and human neuroblastoma (SK-N-MC) cells were purchased from American Type Culture Collection (ATCC-Rockville, Md.). These cells were grown at 37° C. in the presence of 5% carbon dioxide tension in minimal essential medium (MEM-Eagle) containing 0.1 mM of nonessential amino acids, and Earl's BSS 90% supplemented with 5% Newborn Calf Serum (NCS) and 1% penicillin/streptomycine sulfate. For SK-N-MC cells, 1.0 mM sodium pyruvate, and 10% NCS was used. The stock cells were prepared and stored at -80° C. in 5% dimethyl sulfoxide (DMSO).
A betulin solution containing 0.5 mg of betulin/1000 ml of water was filtered using a […] pore size filter (Gelman) attached to a 35 ml volume syringe to remove bacteria and other larger organisms. This sterile sample was further diluted to 1:2, 1:4, and 1:8 using distilled, deionized sterile water.
The cytotoxic effect of betulin was observed by using a 24-well microtiter plate. Each well contained 1 ml of MEM with supplements containing 1200 HEp2, Vero or SK-N-MC cells. The plates were incubated for 48 hours at 37° C. in 5% carbon dioxide tension and followed by replacement of the medium with 1.0 ml of MEM with specific supplements.
A 1.0 ml of sterile betulin solution in duplicate at varying two-fold dilution were placed into labeled wells. No betulin solution was placed in the control wells containing a monolayer of cells. These microtiter plates were incubated at 37° C. and 5% carbon dioxide tension for 48 hours and rated as follows.
Similarly, a plus 2 (++) for 75% monolayer, a plus one (+) for 50% monolayer, and a plus minus (±) for 25% monolayer development. A minus rating means that most of the cells are abnormal, whereas a double minus (--) rating was given to wells containing all abnormal cells due to cytotoxic effect of betulin solution. Noncytotoxic dilutions and the highest dilution of betulin showing cytotoxicity, if any, were used in the protection tests. […]

SK-N-MC cells = test: Cytotoxicity test and drug controls, SK-N-MC cells; format: cell-based, human; parameters: Betulin control (monolayer rating) / Acyclovir control (monolayer rating): key to the marks not given beside the values
HSV-2 [2] = test: Cell protection test, HSV-2 in SK-N-MC cells; format: cell-based, herpes simplex virus type 2 (MS, patent strain); settings: duplicate wells, 72 hours
Protocol: as §1, §2, §3

HEp2 cells = test: Cytotoxicity test and drug controls, HEp2 cells; format: cell-based, human; parameters: Betulin control (monolayer rating) / Acyclovir control (monolayer rating): key to the marks not given beside the values
HSV-1 [3] = test: Cell protection test, HSV-1 in SK-N-MC cells; format: cell-based, herpes simplex virus type 1 (KOS, patent strain); settings: duplicate wells, 72 hours
Protocol: as §1, §2, §3

HSV-1 and HSV-2 = test: Cell protection tests, overall, HSV-1 and HSV-2 in three cell lines; format: cell-based
Protocol: as §1, §2, §3

HSV-2 [4] = test: Cell protection test, HSV-2 in HEp2 cells; format: cell-based, herpes simplex virus type 2 (MS, patent strain); settings: duplicate wells, 72 hours
Protocol: as §1, §2, §3

HSV-1 [5] = test: Cell protection test, HSV-1 in Vero cells; format: cell-based, herpes simplex virus type 1 (KOS, patent strain); settings: duplicate wells, 72 hours
Protocol: as §1, §2, §3

HSV-2 [6] = test: Cell protection test, HSV-2 in Vero cells; format: cell-based, herpes simplex virus type 2 (MS, patent strain); settings: acyclovir 25 mg; duplicate wells; 72 hours
Protocol: as §1, §2, §3

[7] = betulin 0.5 mg/l and two-fold dilutions, 48 hours
[8] = acyclovir 50 mg/l and two-fold serial dilution

## C=C(C)[C@@H]1CC[C@]2(CO)CC[C@]3(C)[C@H](CC[C@@H]4[C@@]5(C)CC[C@H](O)C(C)(C)[C@@H]5CC[C@]43C)[C@@H]12 [Betulin, lup-20(29)-ene-3β, 28-diol]
HSV-1 [1]; betulin 0.5 mg [mg/l]
  Effectiveness of betulin against HSV-1 in HEp2 cells: ++±
Vero cells; [7]
  Cytotoxic effect: not toxic; also recorded: did not show any cytotoxic effect
Vero cells; control wells, highest concentration of betulin, Tables 3 and 4
  Betulin control (monolayer rating): +++
SK-N-MC cells; [7]
  Cytotoxic effect: not toxic; also recorded: did not show any cytotoxic effect
SK-N-MC cells; control wells, highest concentration of betulin, Tables 5 and 6
  Betulin control (monolayer rating): +++
HSV-2 [2]; betulin 0.5 mg
  Effectiveness of betulin against HSV-2 in SK-N-MC cells: ++±
HEp2 cells; [7]
  Cytotoxic effect: not toxic; also recorded: did not show any cytotoxic effect
HEp2 cells; control wells, highest concentration of betulin, Tables 1 and 2
  Betulin control (monolayer rating): +++
HSV-1 [3]; betulin 0.5 mg
  Effectiveness of betulin against HSV-1 in SK-N-MC cells: ++±
HSV-1 and HSV-2; 0.5 mg/l betulin vs 25 mg/l ACV, three cell types
  Effectiveness in protecting indicator cell monolayers compared to acyclovir: as effective as 25 mg/l of ACV
HSV-1 and HSV-2; after 72 hours
  Spread of virus from the infected cells: did not spread from the infected cells
HSV-1 and HSV-2; three different cell lines
  Effectiveness against HSV-2 compared to HSV-1: slightly more effective in protecting all three different cell lines against HSV-2 strains than HSV-1 strains; also recorded: more effective against HSV-2 compared to HSV-1
HSV-2 [4]; betulin 0.25 mg
  Effectiveness of betulin against HSV-2 in HEp2 cells: ++±
HSV-1 [5]; betulin 0.5 mg
  Effectiveness of betulin against HSV-1 in vero cells: ++±

## Nc1nc2c(ncn2COCCO)c(=O)[nH]1 [Acyclovir, reference compound]
HSV-1 [1]; acyclovir 25 mg [mg/l]
  Effectiveness against HSV-1 in HEp2 cells (acyclovir): ++±
Vero cells
  Acyclovir control (monolayer rating): +++
SK-N-MC cells
  Acyclovir control (monolayer rating): +++
SK-N-MC cells; [8]
  Cytotoxic effect: no cytotoxic effect was observed
HSV-2 [2]; acyclovir 25 mg
  Effectiveness against HSV-2 in SK-N-MC cells (acyclovir): ++±
HEp2 cells
  Acyclovir control (monolayer rating): +++
HEp2 cells; [8]
  Cytotoxic effect: no cytotoxic effect was observed
HSV-2 [6]
  Effectiveness against HSV-2 in vero cells (acyclovir): ++±
HSV-1 [3]; acyclovir 25 mg
  Effectiveness against HSV-1 in SK-N-MC cells (acyclovir): ++±
HSV-2 [4]; acyclovir 25 mg
  Effectiveness against HSV-2 in HEp2 cells (acyclovir): ++±
HSV-1 [5]; acyclovir 25 mg
  Effectiveness against HSV-1 in vero cells (acyclovir): ++±
